The subject of assay [1] is colorectal (HCT116), breast (MCF-7) and non-small cell lung (H1299, A549, H358 and H460) cell line models. As to the kind of experiment: Colony forming assay. In kind it is cell-based. To be noted: increasing concentrations of FUdR between 0.5 and 2.5 μmol/L; all cell lines evaluated. On the procedure:
Colony forming assay showing the ability of colon (SW620, HCT116), non-small cell lung (A549, H460, H1299 and H358) and breast (MCF7) cancer cells to survive and proliferate following transient 24 hour exposure to test compounds, FUdR and combinations are determined. Specifically, cells are seeded at densities between 50 and 100 cells/well in 24-well plates. […] After 24 hours, drug is removed, cells are rinsed and allowed to outgrow for 10-14 days. At the conclusion of the outgrowth, cells are fixed in 60% ice cold methanol and stained with 0.1% crystal violet, scanned and counted. Data is presented as percentage of untreated controls (mean±SD). Fraction affected and combination indexes are calculated according to the method of Chou and Talalay where <1 is indicative of a synergistic drug interaction.
Colony forming assays are performed to evaluate the effectiveness of test compounds alone and in combination with the fluoropyrimidine thymidylate synthase (TS) inhibitor fluorodeoxyuridine (FUdR) at reducing cancer cell viability in colorectal (HCT116), breast (MCF-7) and non-small cell lung (H1299, A549, H358 and H460) cell line models. […] In colorectal cancer cells, concentrations of test compounds ranging e.g., from 3.1 μmol/L to 50 μmol/L are combined with 0.5 μmol/L FUdR in HCT116 cells and 1 μmol/L FUdR in SW620 cells.

Assay [2] deals with colorectal (HCT116 and SW620) cell line models. Kind of assay: MTS growth inhibition assay. To be noted: increasing concentrations of 5-FU between 0 and 100 μmol/L; both colorectal cancer cell lines. In kind it is cell-based. On the procedure: The Cell Titer AQueous MTS assay (Promega) is carried out according to the manufacturers guidelines. […] The combination effect is determined by the combination index (CI) method utilizing Calcusyn software (Biosoft, Ferguson, Mo.). Fraction affected (FA) is calculated from the percent growth inhibition: FA=[…]. CI values <1, synergism; 1-1.2, additive and >1.2, antagonism.
Test compounds are evaluated for their antitumor activity in colorectal cancer cells using the MTS growth inhibition assay. HCT116 and SW620 cells are exposed to increasing concentrations of each agent for 72 hours and growth inhibition is directly compared to vehicle-treated controls. The NSCLC cell lines A549 and H1299 are exposed to increasing concentrations of each agent for 72 hours and growth inhibition is directly compared to vehicle-treated controls.
MTS growth inhibition assays are performed to evaluate the effectiveness of the test compounds alone and in combination with the fluoropyrimidine thymidylate synthase (TS) inhibitor 5-fluorouracil (5-FU) at inhibiting the growth of colorectal (HCT116 and SW620) cell line models. […] Simultaneous treatment with increasing concentrations of 5-FU and a test compound at fixed concentrations of 25 μmol/L is determined.
Background: Formazan colour is commonly taken as a measure of viable cells.

The target in assay [3] is T1, recombinant human deoxyuridine nucleotidohydrolase (dUTPase) (Homo sapiens, UniProt P33316).
T1 construct: made in house
T1 sequence (P33316 1-164 isoform P33316-2): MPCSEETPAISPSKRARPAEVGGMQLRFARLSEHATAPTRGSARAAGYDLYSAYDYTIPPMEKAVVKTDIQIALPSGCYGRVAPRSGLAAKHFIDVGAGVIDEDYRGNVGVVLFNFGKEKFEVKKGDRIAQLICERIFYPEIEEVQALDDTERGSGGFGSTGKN
As to the kind of experiment: fluorescence-based dUTPase inhibition assay (DNA polymerase-based dUTP detection). In kind it is biochemical. To be noted: mean across three concentrations, typically 100, 50 and 25 μmol/L, compared to the in-run positive control. An excerpt:
Recombinant human deoxyuridine nucleotidohydrolase (dUTPase) is expressed and purified as described in Ladner R D, Carr S A, Huddleston M J, McNulty D E, Caradonna S J. J Biol Chem. 1996 Mar. 29; 271(13):7752-7. All drugs stocks are aliquoted and diluted as appropriate prior to use. The oligonucelotide primer, templates and fluorophore- and quencher-labeled detection probes are synthesized by Integrated DNA Technologies (Coralville, Iowa), subjected to polyacrylamide gel electrophoresis purification and reconstituted in Omnipur sterile nuclease-free water (EMD Chemicals USA, Gibbstown N.J.) at a stock concentration of 100 μmol/L. The two non-emissive (dark) quenching molecules incorporated into the detection probes include the Iowa black fluorescein quencher (IBFQ; absorption max 531 nm) and ZEN (non-abbreviation; absorption max 532 nm). The fluorescent label utilized is 6-FAM (5′-carboxyfluorescein; excitation max.=494 nm, emission max.=520 nm). Probes are further diluted to a working stock of 10 μmol/L and aliquoted to avoid repeated freeze/thaw cycles. AmpliTaq Gold DNA Polymerase, GeneAmp 10×PCR Buffer 2, MgCl2 and MicroAmp Optical 96-well Reaction Plates are purchased from Applied Biosystems (Carlsbad, Calif.). dNTPs are purchased individually at stock concentrations of 100 mmol/L from New England Biolabs at HPLC-certified >99% purity (Ipswich, Mass.).
Reaction mixtures contained primer, probe and template at an equimolar final concentration of 0.4 μmol/L. Magnesium chloride (MgCl2) is included at a final concentration of 2 mmol/L. Non-limiting dNTPs are included in the reaction mix in excess at a final concentration of 100 μmol/L (dUTP/dTTP is excluded). AmpliTaq Gold DNA polymerase is added at 0.875 U/reaction, 2.5 μl of 10×PCR buffer 2 added and nuclease-free ddH2O added to a final reaction volume of 25 μl. For dUTP inhibition analysis, the volume of ddH2O is further modified to accommodate an additional 1 μl of dUTPase (10 ng/μl) and 1 μl of inhibitor or DMSO control. Thermal profiling and fluorescence detection is performed using a customized thermal program on board a Roche Lightcycler LC480 Instrument II. For analysis of dNTPs, the thermal profile consisted of an 8 min 37° C. step followed by a 10 min 95° C. step to ‘hot-start’ the Taq polymerase and a primer extension time of up to 30 min at 60° C. Raw fluorescence spectra for 6-FAM is measured at specified time intervals to follow assay progression on board a Roche LightCycler 480 Software Version 1.5 and exported and analyzed in Microsoft Excel (Microsoft, Redmond Wash.) and Prism (GraphPad Software, La Jolla Calif.). Fluorescence values for blank reactions (limiting dNTP omitted) are subtracted to give normalized fluorescence units (NFU) to account for background fluorescence.
Test compounds were screened in a fluorescence-based assay. The assay employed a DNA polymerase-based approach utilizing an oligonucleotide template with 3 distinct regions: a 3′ primer binding region, a mid-template dUTP/thymidine triphosphate (TTP) detection region and a 5′ 6-[…] (FAM)-labeled probe binding region that incorporates a black hole quenching moiety. During the reaction, the probe and primer hybridize to the oligonucleotide template to form the template:primer:probe complex. When Taq polymerase binds to the primer in the TPP complex and dUTP is present, successful extension of the nascent strand occurs and the inherent 5′ to 3′ exonuclease activity of Taq polymerase cleaves and displaces the 6-FAM-labeled probe in a 5′ to 3′ direction, releasing the 6-FAM fluorophore from its proximity to the […]. This displacement effectively disrupts the Förster resonance energy transfer (FRET) and the resulting fluorescence detected upon excitation is directly proportional to the amount of the dUTP available in the assay for incorporation. […]

For assay [4], the target named is T1, recombinant human deoxyuridine nucleotidohydrolase (dUTPase). Described as above. In kind it is biochemical. The following applies: 5 ng recombinant dUTPase, 50 pmols dUTP, 37° C. for 8 mins.

pIC50: −log10 of the molar value.

`O=c1[nH]c(=O)n([C@H]2C[C@H](O)[C@@H](CO)O2)cc1F` [FUdR, fluorodeoxyuridine]: the colonies formed result in assay [1] is listed as “dose-dependent decreases in colonies formed”.
Take `O=c1[nH]cc(F)c(=O)[nH]1` [Example 5-FU, 5-fluorouracil]: the growth inhibition result in assay [2] is “dose-dependent increases in growth inhibition”.
Regarding `C[C@@H](NS(=O)(=O)CCCOCN1CCC(=O)NC1=O)c1cccc(OC2CCCC2)c1` [Example 93, (R)—N-(1-(3-(cyclopentyloxy)phenyl)ethyl)-3-((2,4-dioxotetrahydropyrimidin-1(2H)-yl)methoxy)propane-1-sulfonamide], in assay [3], the “% relative inhibition vs. positive control” value came to 149%. The pIC50 in assay [4] was 6.30.

The term pIC50 denotes the IC50 on a negative log10 scale, so that one unit is a factor of ten.

The record behind these values is patent US11174271B2, “6-membered uracil isosteres” (CV6 Therapeutics (NI) Limited, priority 2016, dated 2021).
